Source: US5880116A, “Use of celastrol to treat alzheimer's disease” (Neurocal International, priority 1996, dated 1999)

Legend:
[1] = tested on: patients clinically diagnosed with early AD; details: six months; cited from earlier work
agitation and aggression = details: in vivo; cited from earlier work
AD patients = details: file history of US 5,192,753; cited from earlier work
patients with AD = details: a subgroup of patients with AD; cited from earlier work
[2] = tested on: rats (psychomotor activity); experiment: Open-field psychomotor activity (PMA, VA, FF) in OUCEM-86 electronic maze; assay type: in vivo, rat (female Sprague-Dawley); details: for PMA: Psychomotor activity: N = 6, mean ± SD, 30 min recording
Protocol: (§1) Celastrol or vehicle was administered to rats as described below. Female Sprague-Dawley rats (obtained from Santiago University, Santiago de Compostela, Spain) were about 3 months old and weighed 200-250 g. The animals were maintained under standard conditions at the Euroespes Institute laboratory facilities.
(§2) The celastrol formulation was purchased in China in the form of pills under the name of "Leigongtengpian." The dose is expressed as the content of celastrol. The celastrol was dissolved in DMSO (35 μg/mL) and then adjusted to the appropriate concentration with 0.9% saline. Doses of 1.4, 7 and 35 μg/kg were administered intraperitoneally (i.p.) in a total injection volume of 2 ml/kg.
Immediately after injection, the animals were placed in the Osaka University Computerized Electronic Maze system (OUCEM-86, obtained from Bio Medica, Ltd., Osaka, Japan). The system, as previously described by Cacabelos et al (Prog. Med. 7:763-773, 1987), is integrated with the following components: A Programmable Electronic Platform (PEP) which measures 62 cm×62 cm and is equipped with 48 photo beam sensors (OPX-T30) to detect the three-dimensional position (four-footed, two-footed or rearing, and jumping) of the test animal; a Programming Panel (PP) (Model BECM-0064) for paradigm simulation; a Shock Generator Scrambler (SGS)(Model BSG-1065) to apply continuous or discontinuous electric currents to the PEP; a Control Station interface device to automatically computerize behavioral parameters; and a Computerized System (NEC PC-9801F) for data processing and experimental setting.
Tests were conducted in an open-field paradigm (where the rat can move freely) as previously described (Cacabelos et al. 1987) where psychomotor activity (PMA) was automatically recorded. Total PMA is the sum of horizontal and vertical movements. Horizontal movements are four-footed movements (FF). Vertical activity (VA) includes jumping and rearing (or two-footed) movements. The temporal profile of PMA during the 30 minutes of recording was also studied. PMA, FF and VA were expressed as total inputs/outputs (I/O). In general, increases in PMA, mainly in VA, are observed in situations of stress. A global increase in PMA is also found under treatment with stimulants and in rats with brain cholinergic deficits. Conversely, decreases in PMA are typical of sedative drugs, for instance.
(§3) Data were statistically analyzed by the ANOVA and the Duncan test for multiple comparisons. Results were expressed as mean ± standard deviation (SD) in tables and as mean ± standard error of […] (SEM) in figures.

[3] = tested on: rats (psychomotor coordination); experiment: Psychomotor coordination (PMC) in rota-rod apparatus; assay type: in vivo, rat (female Sprague-Dawley); details: for PMC: Psychomotor coordination: N = 6, mean ± SD
Protocol: as §1, §2
At one hour after treatment, psychomotor coordination (PMC) was evaluated in a rota-rod apparatus (Letica Scientifiic Instruments, Barcelona, Spain) which consists of a roller turning at a constant pre-selected velocity (4-40 rpm) or at an increasing velocity with constant acceleration (for example, from 4 to 40 rpm in 300 seconds), and four digital counters that are stopped when the rat falls from the rod and lowers a pedal. In this test, the animals ran on a rod with constant acceleration until they fell off because they are unable to run at the necessary velocity to maintain equilibrium. Generally, there are two main causes of low performance in this test 1) myorelaxation and 2) balance disorders, as in some vestibular and brain lesions. Improved performance is seen with drugs improving muscular strength, motor coordination and/or balance. Mean running time of five consecutive trials was taken as an index of PMC.
as §3

[4] = tested on: rats (passive avoidance learning); experiment: Passive avoidance behavior (PAB) learning, fixed-ratio maze paradigm; assay type: in vivo, rat (female Sprague-Dawley); details: for Av: number of avoidances during 10 trials / La: mean latency time per trial: N = 6, mean ± SD
Protocol: as §1, §2
Two hours after treatment, rats were tested for passive avoidance behavior in a PAB fixed-ratio maze paradigm, in which they learned to stay on a neutral platform (18×18 cm) in order to avoid a continuous electric footshock in the surrounding area during 10 trials (30 seconds each). The inter-trial interval was 30 seconds. The number of complete avoidances during 10 trials (Av; successful trials in which rat remains in the neutral area the entire 30-second period) and the latency per trial (La; time spent in the neutral platform before leaving it in a trial) were taken as learning indices. The number of avoidances represents a yes/no or discontinuous variable reflecting learning ability of the rats. In general, good learners perform more avoidances because they need fewer trials to learn to avoid footshock. Latency is a continuous variable measuring the time the rat is on the neutral platform without receiving footshock. Rats having the best memory or learning capacity spend more time on the neutral area. Therefore, latency is also an index of learning ability. Finally, when a drug increases the number of avoidances and mean trial latency in this paradigm, it means that this drug improves learning and memory function.
as §3

splenic cells = details: cited from earlier work
ICR inbred mice = details: 1-3 mg/kg i.p. daily; cited from earlier work
peritoneal macrophages = details: dose dependent; cited from earlier work
splenic lymphocytes = details: dose dependent; cited from earlier work
[5] = tested on: AA rats with experimental adjuvant arthritis; details: rat, in vivo; cited from earlier work
[6] = in words; cited from earlier work
[7] = 1.4 μg/kg i.p., 2 hours after treatment
[8] = 7.0 μg/kg i.p., * p < 0.05 vs control (0.0)

## COc1ccc2c(c1)c(CC(=O)O)c(C)n2C(=O)c1ccc(Cl)cc1 [indomethacin]
[1]
  ADAS: only slight decrements
  BNT: slight improvement
  MMSE: almost no change
  TT: only slight decrements

## CC(C)NCC(O)COc1cccc2[nH]ccc12 (stereo not shown) [pindolol]
Agitation and aggression
  agitation and aggression: reported to help reduce agitation and aggression

## O=C1CC2(CCCC2)CC(=O)N1CCCCN1CCN(c2ncccn2)CC1 [buspirone]
Agitation and aggression
  agitation and aggression: reported to help reduce agitation and aggression

## CC(C)NCC(O)COc1cccc2ccccc12 (stereo not shown) [Propranolol]
Agitation and aggression
  agitation and aggression: reported to help reduce agitation and aggression

## C[C@]12C=CC(=O)C=C1CC[C@@H]1[C@@H]2C(=O)C[C@@]2(C)[C@H]1CC[C@]2(O)C(=O)CO [prednisone]
AD patients
  effect in AD patients: no effect

## Nc1c2c(nc3ccccc13)CCCC2 [tacrine]
Patients with AD
  cognitive and functional measures: improvement

## CC1=C(O)C(=O)C=C2C1=CC=C1[C@@]2(C)CC[C@@]2(C)[C@@H]3C[C@](C)(C(=O)O)CC[C@]3(C)CC[C@]12C [Celastrol]
[2]; 1.4 μg group, significance not reached
  PMA vs untreated group, in words: higher than for the untreated group
[2]; 1.4 μg/kg i.p.
  PMA: Psychomotor activity: 3011 ± 1185 I/O
[2]; 7.0 μg/kg i.p.
  PMA: Psychomotor activity: 2200 ± 1203 I/O
[2]; 35.0 μg/kg i.p.
  PMA: Psychomotor activity: 1637 ± 796 I/O
[2]; 1.4 and 7 μg groups
  four-footed (FF) activity (FIG. 12), in words: improved somewhat
[2]; 1.4 and 7 μg treatment groups
  PMA (total activity, FIG. 10), in words: fared somewhat better
[2]; 1.4 and 7 μg treatment groups vs no-treatment group
  vertical activity (VA, FIG. 11), in words: fared somewhat better than the no-treatment group
[2]; all treatment groups
  PMA over the thirty minute test interval (FIG. 13), in words: a general trend of decreasing activity during the test period
[2]; i.p.
  dose of maximum effect on PMA: 1.4 µg/kg
[3]; 1.4 μg/kg i.p., 1 hour after treatment
  PMC: Psychomotor coordination: 99.4 ± 19.2 sec/trial
[3]; 7 μg group
  PMC, significance of difference: reached significance
[3]; 7.0 μg/kg i.p., ** p < 0.01 vs control (0.0)
  PMC: Psychomotor coordination: 126.3 ± 37.6 sec/trial
[3]; 35.0 μg/kg i.p., 1 hour after treatment
  PMC: Psychomotor coordination: 106.5 ± 21.3 sec/trial
[3]; 1.4, 7 and 35 μg treatment groups vs no-treatment group
  PMC (FIG. 14), in words: all scored better than the no-treatment group
[3]; i.p.
  dose of maximum effect on PMC: 7 µg/kg
[4]; [7]
  Av: number of avoidances during 10 trials: 4.3 ± 2.1 n°
  La: mean latency time per trial: 18.3 ± 5.2 s
[4]; 7 μg group
  Av, significance of difference: reached significance
  La, significance of difference: reached significance
[4]; [8]
  Av: number of avoidances during 10 trials: 5.1 ± 1.8 n°
  La: mean latency time per trial: 20.3 ± 2.8 s
[4]; 7.0 μg/kg treatment group
  latency time on the neutral platform (FIG. 16), in words: learned significantly more quickly to stay on the platform and avoid the shock
[4]; 35 μg group
  La, significance of difference: reached significance
[4]; 35.0 μg/kg i.p., 2 hours after treatment
  La: mean latency time per trial: 18.8 ± 4.6 s
[4]; 35.0 μg/kg i.p., * p < 0.05 vs control (0.0)
  Av: number of avoidances during 10 trials: 5.0 ± 1.4 n°
[4]; 7 and 35 μg treatment groups vs no-treatment group
  numbers of complete avoidances during 10 trials (FIG. 15), in words: scored significantly higher
[4]; i.p.
  dose of maximum effect on PAB scores: 7 µg/kg
Splenic cells; PHA, Con A, LPS and PWM
  concentration of optimal effects on mitogen-induced splenic cell proliferation: 0.1 µg/mL
Splenic cells; in words
  proliferation of splenic cells induced by mitogens PHA, Con A, LPS and PWM: inhibited proliferation
ICR inbred mice
  antibody formation: reduced antibody formation very significantly
  circulating immune complex levels: decreased circulating immune complex levels
  serum complement: increased serum complement
Peritoneal macrophages
  LPS-induced IL-1 production: decreased
Splenic lymphocytes
  Con A-induced IL-2 production: decreased
[5]
  joint edema: reduced joint edema
  lipid-peroxidation and free radical formation: inhibition of lipid-peroxidation and free radical formation
[6]
  insecticidal activity: insecticidal inert
